“Also recorded” adds a separate entry of the source. Numbered stars: 1 amine (or outer) side, 2 acyl side, 3 side chain; on linkers, the order of the positions; unused ones are H or OH. Bridge positions count the residues as written; N and C are the ends. Square brackets hold non-standard residues; d marks the D form. Peptide text beside a SMILES is read from it. * marks the point of attachment. Leu(3R-OH,Nα-propionyl) = CCC(=O)N[C@H](C(=O)*)[C@H](O)C(C)C; X1 = CC(C)[C@@H](O[*:3])[C@H](N[*:1])C(=O)[*:2]; NMeT = CN[C@H](C(=O)O)[C@@H](C)O; dPhLac = O=C(O)[C@H](O)Cc1ccccc1; NMeA = CN[C@@H](C)C(=O)O; NMeDha = C=C(NC)C(=O)O
What was measured:
[1] = molecular target: T1, cannabinoid receptor 2 (Cnr2) (Homo sapiens, UniProt P34972); assay: Intracellular Ca2+ measurement in CNR2-transfected HEK293 cells; assay type: cell-based; conditions: 200 nM of 2-AG, Fig. 2c
T1 construct: expressed in transfected cells; host or cells: HEK293
T1 sequence (P34972 whole entry): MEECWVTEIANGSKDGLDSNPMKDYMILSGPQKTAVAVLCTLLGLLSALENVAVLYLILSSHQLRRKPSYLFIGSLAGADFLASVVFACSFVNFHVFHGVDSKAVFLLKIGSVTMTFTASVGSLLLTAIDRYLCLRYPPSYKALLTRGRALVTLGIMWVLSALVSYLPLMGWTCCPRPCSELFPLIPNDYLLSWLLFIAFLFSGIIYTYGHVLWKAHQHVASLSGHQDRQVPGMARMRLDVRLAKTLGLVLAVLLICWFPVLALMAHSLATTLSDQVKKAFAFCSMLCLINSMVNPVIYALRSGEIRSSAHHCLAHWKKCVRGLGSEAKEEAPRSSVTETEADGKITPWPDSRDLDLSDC
Method: RAW264.7 cells were grown in DMEM supplemented with 10% FBS, A7r5 (rat […]) cells in DMEM with 10% FBS, and A431 (human squamous carcinoma) cells in RPMI supplemented with 10% FBS. All cell lines were grown at 37 °C in a humidified 5% CO2 incubator. For functional assays, receptor constructs were heterologously expressed in human embryonic kidney (HEK293) cells upon transient or stable transfection. Cells were grown in DMEM/F12 supplemented with 10% FBS, 100 units/ml penicillin, and 100 µg/ml streptomycin. For the cAMP-inhibition assay, ERK1/2 phosphorylation assay, and Ca^2+ mobilization assay, cells were split into 96-well plates (2.0 × 10^4 cells/well) and transfected with 250 ng vector construct using MACSfectin™ (Miltenyi Biotec, Germany) according to manufacturer’s protocol. Empty vector (mock) served as the negative control. For siRNA experiments, cells were seeded in 6-well plates (4.0 × 10^5 and 6.0 × 10^5 cells/well for RAW264.7 and H1819, respectively). […]
For fluorometric measurements of intracellular Ca^2+ levels with the FlexStationII instrument (Molecular Devices), RAW264.7 and H1819 cells were seeded into 96-well plates (3.0 × 10^4 cells/well) 24 h prior to assay. […] Fold-response was calculated by RFUmax − RFUmin (ligand)/RFUmax − RFUmin (vehicle). EC50 values were calculated by using GraphPad Prism6 software (GraphPad, USA).

[2] = molecular target: T2, P2Y1 (Homo sapiens, UniProt P47900); assay: Intracellular Ca2+ release in HEK293 cells transfected with P2RY1; assay type: cell-based; conditions: HEK293 transfected with P2RY1, Fig. 3f
T2 construct: expressed in transfected cells; host or cells: HEK293
T2 sequence (P47900 whole entry, species assumed): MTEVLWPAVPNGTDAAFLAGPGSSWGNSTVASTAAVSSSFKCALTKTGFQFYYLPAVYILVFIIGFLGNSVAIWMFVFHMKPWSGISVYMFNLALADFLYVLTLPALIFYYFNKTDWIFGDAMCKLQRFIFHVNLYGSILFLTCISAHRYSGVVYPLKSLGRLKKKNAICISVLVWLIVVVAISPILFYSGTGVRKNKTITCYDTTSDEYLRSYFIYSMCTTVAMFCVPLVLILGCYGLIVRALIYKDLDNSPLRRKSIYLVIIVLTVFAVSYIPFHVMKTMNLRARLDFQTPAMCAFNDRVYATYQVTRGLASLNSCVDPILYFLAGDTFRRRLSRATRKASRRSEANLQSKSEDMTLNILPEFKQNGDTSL
Method: (§1) For fluorometric measurements of intracellular Ca^2+ levels with the FlexStationII instrument (Molecular Devices), RAW264.7 and H1819 cells were seeded into 96-well plates (3.0 × 10^4 cells/well) 24 h prior to assay. Ca^2+ measurements with transiently transfected HEK293 cells were performed 48 h after transfection. Cells were loaded with 200 µl Calcium 5 reagent (Explorer Kit, Molecular Devices, USA) for 60 min at 37 °C, and the assay was performed as described. Agonists and inhibitors were solved in DMSO (100x) and diluted […] in 96-well compound plates containing HBSS. 50 µl of compound solution were added to the assay plate resulting in final concentration of 1% DMSO. Fold-response was calculated by RFUmax − RFUmin (ligand)/RFUmax − RFUmin (vehicle). EC50 values were calculated by using GraphPad Prism6 software (GraphPad, USA).

[3] = molecular target: T3, P2Y12 (Homo sapiens, UniProt Q9H244); assay: Intracellular Ca2+ release in HEK293 cells transfected with P2RY12; assay type: cell-based; conditions: HEK293 transfected with P2RY12, Fig. 3f
T3 construct: expressed in transfected cells; host or cells: HEK293
T3 sequence (Q9H244 whole entry, species assumed): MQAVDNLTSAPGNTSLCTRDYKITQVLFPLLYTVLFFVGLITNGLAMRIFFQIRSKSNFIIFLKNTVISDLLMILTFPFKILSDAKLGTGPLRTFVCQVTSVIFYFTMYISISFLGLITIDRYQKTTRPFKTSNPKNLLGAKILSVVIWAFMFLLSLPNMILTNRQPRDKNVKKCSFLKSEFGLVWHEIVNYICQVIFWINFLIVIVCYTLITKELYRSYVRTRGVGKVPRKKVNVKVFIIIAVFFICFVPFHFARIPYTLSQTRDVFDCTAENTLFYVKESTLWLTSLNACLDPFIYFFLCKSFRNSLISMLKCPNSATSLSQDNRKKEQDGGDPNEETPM
Method: as §1

[4] = molecular target: T4, P2Y6 (Homo sapiens, UniProt Q15077); assay: Functional readouts at P2Y6, summary statements; assay type: cell-based; conditions: Fig. 5a–d
T4 sequence (Q15077 whole entry): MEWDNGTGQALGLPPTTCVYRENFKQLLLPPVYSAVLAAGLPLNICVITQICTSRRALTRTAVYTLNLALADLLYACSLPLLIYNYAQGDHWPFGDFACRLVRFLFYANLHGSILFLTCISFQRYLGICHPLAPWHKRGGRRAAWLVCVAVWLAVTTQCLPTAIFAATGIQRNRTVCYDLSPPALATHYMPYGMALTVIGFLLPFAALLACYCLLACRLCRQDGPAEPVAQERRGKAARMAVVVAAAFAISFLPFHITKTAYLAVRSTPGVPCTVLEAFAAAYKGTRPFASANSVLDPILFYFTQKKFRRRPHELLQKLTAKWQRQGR

[5] = molecular target: T4, P2Y6; assay: Intracellular Ca2+ measurement in HEK293 cells transfected with P2RY6; assay type: cell-based; design: expressed in transfected cells; host or cells: HEK293; conditions: HEK293 stably transfected with P2RY6, Fig. 5c,d
Method: RAW264.7 cells were grown in DMEM supplemented with 10% FBS, A7r5 (rat […]) cells in DMEM with 10% FBS, and A431 (human squamous carcinoma) cells in RPMI supplemented with 10% FBS. All cell lines were grown at 37 °C in a humidified 5% CO2 incubator. For functional assays, receptor constructs were heterologously expressed in human embryonic kidney (HEK293) cells upon transient or stable transfection. Cells were grown in DMEM/F12 supplemented with 10% FBS, 100 units/ml penicillin, and 100 µg/ml streptomycin. For the cAMP-inhibition assay, ERK1/2 phosphorylation assay, and Ca^2+ mobilization assay, cells were split into 96-well plates (2.0 × 10^4 cells/well) and transfected with 250 ng vector construct using MACSfectin™ (Miltenyi Biotec, Germany) according to manufacturer’s protocol. Empty vector (mock) served as the negative control. For siRNA experiments, cells were seeded in 6-well plates (4.0 × 10^5 and 6.0 × 10^5 cells/well for RAW264.7 and H1819, respectively). RAW264.7 and H1819 cells were transfected with 150 pMol of mP2RY6 siRNA and hP2RY6 siRNA (Santa Cruz Biotechnology, USA), respectively, using Viromer® Blue (Lipocalyx, Germany). As a negative control, control siRNA-A (Santa Cruz Biotechnology, USA) was used. FITC-labelled siRNA served as a transfection control.
To generate a cell line stably expressing P2Y6, HEK293 cells were seeded in 6-well plates (7.5 × 10^5 cells/well) and transfected with 3 µg vector using MACSfectin™ as transfection regent according to the manufacturer’s protocol. The pIRES-eGFP vector served as negative control. Stably transfected HEK293 cells were cultured in the presence of geneticin (500 µg/ml) for selection.
as §1

[6] = molecular target: T4, P2Y6; assay: IP1 accumulation assay in HEK293 cells transfected with wildtype P2RY6; assay type: cell-based; design: expressed in transfected cells; host or cells: HEK293
Method: To measure intracellular IP3 the HitHunter® Inositol (1,4,5) Triphosphate Assay (DiscoveRx, USA) was used according to manufacturer′s protocol. HEK293 cells stably transfected with hP2RY6 were seeded in a 384-well Black microtiter plate (15,000 cells/well) (Greiner Bio One, Germany) and incubated with indicated concentrations of UDP and PGE2-G for 20 seconds. Reaction was stopped by adding 5 µl 0.2 N perchloric acid and measurement of IP3 was performed with the Fusion AlphaScreen multilabel reader (PerkinElmer Life Sciences) according to manufacturer′s protocol. To measure IP1, HEK293 cells expressing wildtype and mutant P2Y6 were seeded into 384-well plates (5,000 cells/well) 24 h prior assay. After aspiration of the medium, cells were incubated with indicated concentrations of agonists/antagonist for 1 h. IP1 measurements using the IP-one HTFR® assay kit (Cisbio assays, USA) were performed according to manufacturer′s protocol. The assays were performed with a final concentration of 1% DMSO.

[7] = molecular target: T4, P2Y6; assay: Agonist-induced receptor internalization, cell surface ELISA; assay type: cell-based; design: expressed in transfected cells; host or cells: HEK293; conditions: Fig. 5e
Method: To estimate cell surface expression of heterologously expressed receptors carrying an N-terminal HA tag, an indirect cellular ELISA was used[57]. To determine the endogenous cell surface expression of P2Y6, the same ELISA procedure was performed with minor modifications. Briefly, after 4% paraformaldehyde fixation and blocking with 10% FBS, cells were incubated with the primary anti-P2Y6 antibody (sc-15215; Santa Cruz Biotechnology, USA) in 1:1,000 dilution for 1 h. After washing with PBS, cells were incubated with peroxidase-conjugated secondary antibody anti-goat IgG (sc-2020, Santa Cruz Biotechnology, USA) in 1:5,000 dilutions.

[8] = test system: RAW264.7 cells; conditions: RAW264.7 cells; cited from earlier work
[9] = molecular target: T4, P2Y6; assay: ERK1/2 phosphorylation (AlphaScreen SureFire) in P2RY6-transfected HEK293 cells; assay type: cell-based; design: expressed in transfected cells; host or cells: HEK293; conditions: HEK293 cells stably transfected with P2RY6, Fig. 3e
Method: Cells were transferred to serum-free medium 2 h prior to assay. Ligands and controls (10 µl of 10× concentrates) were added to 90 µl medium and incubated for 5 min at 37 °C. The final concentration of DMSO was 0.2%. The reaction was stopped by aspiration of the medium and addition of 50 µl lysis buffer (PerkinElmer Life Sciences). To measure ERK1/2 phosphorylation, the AlphaScreen® SureFire ERK 1/2 assay kit (PerkinElmer Life Sciences) was used with the high sensitivity protocol. Phosphorylated ERK1/2 was measured in 384-well white OptiPlate microplates (PerkinElmer Life Sciences) with the Fusion AlphaScreen multilabel reader (PerkinElmer Life Sciences).

CCCCC/C=C\C/C=C\C/C=C\C/C=C\CCCC(=O)OC(CO)CO [2-AG, 2-arachidonoylglycerol]
effect on intracellular Ca2+ [1]: robust intracellular Ca^2+ increase; also recorded: elevated intracellular Ca^2+

Nc1ncnc2c1ncn2[C@@H]1O[C@H](COP(=O)(O)OP(=O)(O)O)[C@@H](O)[C@H]1O [ADP]
Ca2+ release [2]: led to Ca^2+ release
Ca2+ release [3]: led to Ca^2+ release

S=C=Nc1cccc(NC(=S)NCCCCNC(=S)Nc2cccc(N=C=S)c2)c1 [MRS2578]
mode of antagonism [4]: antagonist with mixed properties (competitive and non-competitive)
effect of antagonist on UDP- and PGE2-G-triggered Ca2+ release [5]: same effects; also recorded: reduced both, the efficacies and potencies
effect of antagonist on UDP- and PGE2-G-triggered IP1 accumulation ([6]; HEK293 stably transfected with P2RY6, increasing antagonist concentrations, Fig. 5a,b): reduced both the efficacies and potencies; also recorded: reduced both, the efficacies and potencies
effect of antagonist on agonist-induced internalization [7]: blocked the internalization

CCCCC[C@H](O)/C=C/[C@H]1C(=O)C[C@H](O)[C@@H]1C/C=C\CCCC(=O)OC(CO)CO [PGD2-G]
effect in Ca2+ measurements [8]: no effect

CCCCC[C@H](O)/C=C/[C@H]1[C@H](O)CC(=O)[C@@H]1C/C=C\CCCC(=O)O [PGE2]
effect in Ca2+ measurements [8]: no effect
ERK1/2 phosphorylation response [9]: no response

CCCCC[C@H](O)/C=C/[C@@H]1[C@@H](C/C=C\CCCC(=O)OC(CO)CO)[C@@H](O)C[C@H]1O [PGF2α-G]
effect in Ca2+ measurements [8]: no effect
ERK1/2 phosphorylation response [9]: no response

CCCCC[C@H](O)/C=C/[C@@H]1[C@@H](C/C=C\CCCC(=O)O)[C@@H](O)C[C@H]1O [PGF2α]
effect in Ca2+ measurements [8]: led to Ca^2+ release
ERK1/2 phosphorylation response [9]: no effect

C=C1C(=O)N[C@@H](C)C(=O)N(C)[C@@H](C)C(=O)N[C@@H]([C@H](OC(=O)[C@@H](NC(=O)CC)[C@H](O)C(C)C)C(C)C)C(=O)N(C)[C@@H]([C@@H](C)OC)C(=O)O[C@H](C(C)C)[C@H](NC(C)=O)C(=O)O[C@H](Cc2ccccc2)C(=O)N1C [UBO] (Ac-[X1][dPhLac][NMeDha]A[NMeA][X1](Leu(3R-OH,Nα-propionyl))[NMeT](Me); ester 1-C)
block of IP formation after stimulation with UDP and PGE2-G ([6]; IP1 accumulation, P2RY6-transfected HEK293, Fig. 3d): significantly block
